According to US5262519A, “GRF analogs XI” (The Salk Institute for Biological Studies, priority 1991, dated 1993):
Square brackets hold non-standard residues; d marks the D form. Ends that are not written are not given here. Peptide text beside a SMILES is read from it. Nle = CCCC[C@H](N)C(=O)O

System: cells of rat pituitary glands
Experiment: in vitro release of growth hormone from cultured rat pituitary cells, GH measured by radioimmunoassay
Type: cell-based
Conditions: potency for GH release relative to standard hGRF(1-40)-OH = 1.0; equimolar concentrations; 3 to 4 hours incubation; range in parentheses
Method: To determine the relative effectiveness of synthetic peptides to promote the release of growth hormone, in vitro assays are carried out using synthetic hpGRF(1-40)-OH as a standard in side-by-side comparison with equimolar concentrations of the representative analogs which have been synthesized. Cultures are used which include cells of rat pituitary glands removed some three to five days previously. Such cultures are considered optimal for the secretion of growth hormone and are used for the comparative testing, in the general manner described in Vale et al. Endocrinology, 91, 562-572 (1972) and as more particularly described in Vale et al. Endocrinology, 112, 1553-1555 (1983). Incubation with the substance to be tested is carried out for 3 to 4 hours, and aliquots of the culture medium are removed and processed to measure their contents in immunoreactive GH(ir GH) by a well-characterized radioimmunoassay.

Molecule | In Vitro Potencies
CCCC[C@H](NC(=O)[C@@H](NC(=O)[C@H](CC(=O)O)NC(=O)[C@H](CCC(N)=O)NC(=O)[C@H](CC(C)C)NC(=O)[C@H](CC(C)C)NC(=O)[C@H](CCCCN)NC(=O)[C@H](CCCNC(=N)N)NC(=O)[C@H](C)NC(=O)[C@H](CO)NC(=O)[C@H](CC(C)C)NC(=O)[C@H](CCC(N)=O)NC(=O)CNC(=O)[C@H](CC(C)C)NC(=O)[C@@H](NC(=O)[C@H](CCCCN)NC(=O)[C@H](CCCNC(=N)N)NC(=O)[C@H](Cc1ccc(O)cc1)NC(=O)[C@H](CO)NC(=O)[C@H](C)NC(=O)[C@@H](NC(=O)[C@H](Cc1ccccc1)NC(=O)[C@@H](NC(=O)[C@H](C)NC(=O)[C@H](CC(=O)O)NC(=O)[C@H](C)NC(=O)[C@@H](N)Cc1ccc(O)cc1)[C@@H](C)CC)[C@@H](C)O)C(C)C)[C@@H](C)CC)C(=O)N[C@@H](CO)C(=O)N[C@@H](CCCNC(=N)N)C(N)=O [Example No. 1, [Ala^8, Nle^27]-hGRF(1-29)-NH2] (H-YADAIFTASYRKVLGQLSARKLLQDI[Nle]SR-NH2) | 2.143(1.178-4.065)
CCCC[C@H](NC(=O)[C@@H](NC(=O)[C@H](CC(=O)O)NC(=O)[C@H](C)NC(=O)[C@H](CC(C)C)NC(=O)[C@H](CC(C)C)NC(=O)[C@H](CCCCN)NC(=O)[C@H](CCCNC(=N)N)NC(=O)[C@H](C)NC(=O)[C@H](CO)NC(=O)[C@H](CC(C)C)NC(=O)[C@H](CCC(N)=O)NC(=O)CNC(=O)[C@H](CC(C)C)NC(=O)[C@@H](NC(=O)[C@H](CCCCN)NC(=O)[C@H](CCCNC(=N)N)NC(=O)[C@H](Cc1ccc(O)cc1)NC(=O)[C@H](CO)NC(=O)[C@H](CC(N)=O)NC(=O)[C@@H](NC(=O)[C@H](Cc1ccccc1)NC(=O)[C@@H](NC(=O)[C@H](C)NC(=O)[C@H](CC(=O)O)NC(=O)[C@H](C)NC(=O)[C@@H](N)Cc1ccc(O)cc1)[C@@H](C)CC)[C@@H](C)O)C(C)C)[C@@H](C)CC)C(=O)N[C@@H](CO)C(=O)N[C@@H](CCCNC(=N)N)C(N)=O [Example No. 3, [Ala^24, Nle^27]-hGRF(1-29)-NH2] (H-YADAIFTNSYRKVLGQLSARKLLADI[Nle]SR-NH2) | 1.345(0.595-2.068)
CCCC[C@H](NC(=O)[C@@H](NC(=O)[C@H](C)NC(=O)[C@H](CCC(N)=O)NC(=O)[C@H](CC(C)C)NC(=O)[C@H](CC(C)C)NC(=O)[C@H](CCCCN)NC(=O)[C@H](CCCNC(=N)N)NC(=O)[C@H](C)NC(=O)[C@H](CO)NC(=O)[C@H](CC(C)C)NC(=O)[C@H](CCC(N)=O)NC(=O)CNC(=O)[C@H](CC(C)C)NC(=O)[C@@H](NC(=O)[C@H](CCCCN)NC(=O)[C@H](CCCNC(=N)N)NC(=O)[C@H](Cc1ccc(O)cc1)NC(=O)[C@H](CO)NC(=O)[C@H](CC(N)=O)NC(=O)[C@@H](NC(=O)[C@H](Cc1ccccc1)NC(=O)[C@@H](NC(=O)[C@H](C)NC(=O)[C@H](CC(=O)O)NC(=O)[C@H](C)NC(=O)[C@@H](N)Cc1ccc(O)cc1)[C@@H](C)CC)[C@@H](C)O)C(C)C)[C@@H](C)CC)C(=O)N[C@@H](CO)C(=O)N[C@@H](CCCNC(=N)N)C(N)=O [Example No. 4, [Ala^25, Nle^27]-hGRF(1-29)-NH2] (H-YADAIFTNSYRKVLGQLSARKLLQAI[Nle]SR-NH2) | 1.34(0.837-2.190)
CC[C@H](C)[C@H](NC(=O)[C@H](C)NC(=O)[C@H](CC(=O)O)NC(=O)[C@H](C)NC(=O)[C@@H](N)Cc1ccc(O)cc1)C(=O)N[C@@H](Cc1ccccc1)C(=O)N[C@H](C(=O)N[C@@H](CC(N)=O)C(=O)N[C@@H](CO)C(=O)N[C@@H](Cc1ccc(O)cc1)C(=O)N[C@@H](CCCNC(=N)N)C(=O)N[C@@H](CCCCN)C(=O)N[C@H](C(=O)N[C@@H](CC(C)C)C(=O)NCC(=O)N[C@@H](CCC(N)=O)C(=O)N[C@@H](CC(C)C)C(=O)N[C@@H](CO)C(=O)N[C@@H](C)C(=O)N[C@@H](CCCNC(=N)N)C(=O)N[C@@H](CCCCN)C(=O)N[C@@H](CC(C)C)C(=O)N[C@@H](CC(C)C)C(=O)N[C@@H](CCC(N)=O)C(=O)N[C@@H](CC(=O)O)C(=O)N[C@H](C(=O)N[C@@H](CCSC)C(=O)N[C@@H](CO)C(=O)N[C@@H](CCCNC(=N)N)C(=O)N[C@@H](CCC(N)=O)C(=O)N[C@@H](CCC(N)=O)C(=O)NCC(=O)N[C@@H](CCC(=O)O)C(=O)N[C@@H](CO)C(=O)N[C@@H](CC(N)=O)C(=O)N[C@@H](CCC(N)=O)C(=O)N[C@@H](CCC(=O)O)C(=O)N[C@@H](CCCNC(=N)N)C(=O)NCC(=O)N[C@@H](C)C(=O)O)[C@@H](C)CC)C(C)C)[C@@H](C)O [hGRF(1-40)-OH, reference compound] | 1.0
[Ala^16, Nle^27 ]-hGRF(1-29)-NH2 (YADAIFTNSYRKVLGALSARKLLQDI[Nle]SR-NH2; N-terminus assumed; SMILES CCCC[C@H](NC(=O)[C@@H](NC(=O)[C@H](CC(=O)O)NC(=O)[C@H](CCC(N)=O)NC(=O)[C@H](CC(C)C)NC(=O)[C@H](CC(C)C)NC(=O)[C@H](CCCCN)NC(=O)[C@H](CCCNC(=N)N)NC(=O)[C@H](C)NC(=O)[C@H](CO)NC(=O)[C@H](CC(C)C)NC(=O)[C@H](C)NC(=O)CNC(=O)[C@H](CC(C)C)NC(=O)[C@@H](NC(=O)[C@H](CCCCN)NC(=O)[C@H](CCCNC(=N)N)NC(=O)[C@H](Cc1ccc(O)cc1)NC(=O)[C@H](CO)NC(=O)[C@H](CC(N)=O)NC(=O)[C@@H](NC(=O)[C@H](Cc1ccccc1)NC(=O)[C@@H](NC(=O)[C@H](C)NC(=O)[C@H](CC(=O)O)NC(=O)[C@H](C)NC(=O)[C@@H](N)Cc1ccc(O)cc1)[C@@H](C)CC)[C@@H](C)O)C(C)C)[C@@H](C)CC)C(=O)N[C@@H](CO)C(=O)N[C@@H](CCCNC(=N)N)C(N)=O) [Example No. 2] | 1.502(0.727-2.859)
